In US20080051365A1, “Treatment of Inflammation” (CAN-FITE BIOPHARMA LTD., priority 2004, published 2008):

What was measured:
[1] = test system: Adjuvant induced Arthritis (AIA) rats; test: Adjuvant induced arthritis (AIA) in rats, arthritis clinical score; assay type: in vivo, rat; conditions: female Lewis rats, CF101 10 μg/kg orally twice daily from day 14, MTX 0.25 or 0.75 mg/kg intraperitoneally every 3 days from day 14, versus vehicle
Description: Female Lewis rats, aged 8-12 weeks were obtained from Harlan Laboratories (Jerusalem, Israel). Rats were maintained on a standardized pelleted diet and supplied with tap water. Experiments were performed in accordance with the guidelines established by the Institutional Animal Care and Use Committee at Can-Fite BioPharma, Petah Tikva, Israel. The rats were injected subcutaneously (SC) at the tail base with 100 μl of suspension composed of incomplete Freund's adjuvant (IFA) with 10 mg/ml heat killed Mycobacterium tuberculosis, (Mt) H37Ra, (Difco, Detroit, USA). Each group contained 10 animals.
Treatment with CF101 (10 μg/kg) was initiated on day 14 after vaccination and was orally administered by gavage, twice daily. Another group was treated with Methotrexate (MTX) (0.25, 0.75 mg/kg) intraperitoneally every 3 days, starting on day 14th after vaccination. The control group in each experiment received vehicle only (DMSO in a dilution corresponding to that of the drugs).
Clinical Disease Activity Score was assessed as follows: the animals were inspected every second day for clinical arthritis. […] The clinical score was calculated by adding the four individual legs' score. The inflammatory intensity was also determined in accordance with the increase in the rat hind paw's diameter, measured by caliper (Mitotoyo, Tokyo, Japan).

[2] = cited from earlier work
[3] = oral CF101, healthy young men; cited from earlier work

| SMILES | disease severity evaluated by the arthritis clinical score [1] | half life in mice [2] [h] | half life in human plasma [3] [h] |
| --- | --- | --- | --- |
| CNC(=O)[C@H]1OC(n2cnc3c(NCc4cccc(I)c4)ncnc32)[C@H](O)[C@@H]1O (stereo partly drawn) [CF101, 1-deoxy-1-[6-[[(3-iodophenyl)methyl]amino]-9H-purine-9-yl]-N-methyl-D-ribofuranuronamide] | significant decrease in disease severity | 1.5 | 8 to 10 |
| CN(Cc1cnc2nc(N)nc(N)c2n1)c1ccc(C(=O)N[C@@H](CCC(=O)O)C(=O)O)cc1 [MTX, Methotrexate, reference compound] | significant decrease in disease severity |  |  |
